Measurements: PMC7226989, “Establishment of an in Vitro Human Blood-Brain Barrier Model Derived from Induced Pluripotent Stem Cells and Comparison to a Porcine Cell-Based System” (Cells, 2020)
Like-named read-outs stand apart in the source and are kept apart here.

Legend:
hiPSC-derived BMECs [1] = assay: Human BBB model permeability, clone not specified or both clones; conditions: for Permeability classification in words: human BBB model, for several compounds stated for both human and porcine models
[2] = Permeability assay across hiPSC-derived BMECs clone 1 on Transwell, co-culture with human astrocytes
[3] = tested on: primary porcine brain endothelial cells (PBECs); assay: Porcine BBB model transport assay; conditions: porcine vs human
in vitro [4] = conditions: human
hiPSC-derived BMECs [5] = tested on: hiPSC-derived BMECs
[6] = Permeability assay across hiPSC-derived BMECs clone 2 on Transwell, co-culture with human astrocytes
[7] = tested on: hiPSC-derived BMECs (IMR-90); conditions: cited from earlier work
in vitro [8] = conditions: human; remark: listed apart in the source
[9] = Human BBB model permeability, clone not specified or both clones; conditions: human
[10] = tested on: primary porcine brain endothelial cells (PBECs); conditions: cited from earlier work
[11] = tested on: hiPSC-derived BMECs (Cl1); assay: Permeability assay across hiPSC-derived BMECs clone 1 on Transwell, co-culture with human astrocytes
[12] = tested on: hiPSC-derived BMECs (Cl1)
[13] = tested on: hiPSC-derived BMECs (r-iSPC 1j cells); design: method as in Delsing et al. 34; conditions: ref Delsing et al. 34; cited from earlier work
hiPSC-derived BMECs [14] = conditions: ref Lippmann 6; cited from earlier work
[15] = tested on: human endothelial cell line hCMEC/D3; design: method as in PMID 30374619; conditions: cited from earlier work
[16] = tested on: hiPSC-derived BMECs (Cl2)

Question: Which results are given for `CC(C)[C@H](NC(=O)[C@H](CCC(=O)O)NC(=O)[C@H](Cc1ccccc1)NC(=O)[C@@H](C)NC(=O)[C@@H](N)Cc1ccc(O)cc1)C(=O)N[C@H](C(=O)NCC(N)=O)C(C)C` [[D-Ala2]deltorphin II]?
Answer: Papp: 7.7 ± 1.7 ×10⁻⁶ cm/s; Permeability classification in words (hiPSC-derived BMECs [1]): moderate permeability; Papp [2]: 3.8 ± 0.5 ×10⁻⁶ cm/s; Fold higher permeability in the porcine than in the human model [3]: two-fold

Question: What does the source list for `Cn1c(=O)c2c(ncn2C)n(C)c1=O` [caffeine]?
Answer: Papp (in vitro [4]): 27 to 31 ×10⁻⁶ cm/s; Permeability classification in words (hiPSC-derived BMECs [5]): highly permeable; Papp [6]: 26.5 ± 0.6 ×10⁻⁶ cm/s; Published permeability ([7]; IMR-90 cells, ref Appelt-Menzel et al. 36): 25.3 ×10⁻⁶ cm/s; Papp (in vitro [8]; Permeability human BBB_Cl1): 30.7 ± 2 ×10⁻⁶ cm/s

Question: Which “Permeability classification in words” value (hiPSC-derived BMECs [1]) does the source give for `CCC(=O)CCCCCC(NC(=O)C1CN(C)C1)c1ncc(-c2cc3ccccc3nc2OC)o1` (stereo not shown) [cpK] here?
Answer: The value was “medium permeability”.

Question: What about the Papp [9] of the same molecule?
Answer: The Papp was 15.4 ± 8.3 ×10⁻⁶ cm/s.

Question: And the “Permeability porcine BBB” value [10]?
Answer: The value was 10.5 ± 3.4 x10^-6 cm/s.

Question: What does the source list for `COc1cccc2c1C(=O)c1c(O)c3c(c(O)c1C2=O)C[C@@](O)(C(C)=O)C[C@@H]3O[C@H]1C[C@H](N)[C@H](O)[C@H](C)O1` [daunomycin]?
Answer: Papp (in vitro [4]): 7 to 9 ×10⁻⁶ cm/s; Fold higher permeability in the human than in the porcine model (hiPSC-derived BMECs [5]): two-fold; Permeability classification in words (hiPSC-derived BMECs [5]): medium permeability; Papp [6]: 6.5 ± 0.7 ×10⁻⁶ cm/s; Papp (in vitro [8]; Permeability human BBB_Cl1): 9.3 ± 2.7 ×10⁻⁶ cm/s

Question: Which Papp B→A (in vitro [8]) does the source give for `C[C@H]1O[C@@H](O[C@H]2[C@@H](O)C[C@H](O[C@H]3[C@@H](O)C[C@H](O[C@H]4CC[C@@]5(C)[C@H](CC[C@@H]6[C@@H]5C[C@@H](O)[C@]5(C)[C@@H](C7=CC(=O)OC7)CC[C@]65O)C4)O[C@@H]3C)O[C@@H]2C)C[C@H](O)[C@@H]1O` [digoxin] here?
Answer: Its Papp B→A is 7.3 ± 0.6 ×10⁻⁶ cm/s.

Question: What does the source list for `NCC1(CC(=O)O)CCCCC1` [gabapentin]?
Answer: Permeability classification in words (hiPSC-derived BMECs [1]): moderate to high permeability; Papp ([2]; human): 11.9 ± 2.9 ×10⁻⁶ cm/s; Papp (in vitro [4]): 12 ×10⁻⁶ cm/s

Question: With `OC[C@H]1OC(O)[C@H](O)[C@@H](O)[C@@H]1O` (stereo partly shown) [glucose] as the molecule, how does the “Inhibition of transport by phloretin” value ([11]; 200 µM phloretin) read?
Answer: The value was about 80%.

Question: What about the “Fold higher permeability in the human than in the porcine model” value (hiPSC-derived BMECs [5]; human and pig) of the same molecule?
Answer: Its value is “more than 3.5”.

Question: What about the “Permeability in the porcine model” value [10] of the same molecule?
Answer: Its value is 7 ×10⁻⁶ cm/s.

Question: And the Papp [6]?
Answer: The Papp was 25.2 ± 7.9 ×10⁻⁶ cm/s.

Question: What about the Papp (in vitro [8]; Permeability human BBB_Cl1) of the same molecule?
Answer: Its Papp is 25 ± 2.7 ×10⁻⁶ cm/s.

Question: For `O=C(O)c1cc(=O)c2ccccc2[nH]1` [kynurenic acid], which Papp (in vitro [4]) is on record?
Answer: The Papp was 0.3 ×10⁻⁶ cm/s.

Question: And the “Permeability classification in words” value (hiPSC-derived BMECs [5])?
Answer: The value was “low permeability”.

Question: What about the “Permeability in porcine (unit not given)” value ([10]; porcine model) of the same molecule?
Answer: The value was 2.8.

Question: And the Papp (in vitro [8]; Permeability human BBB_Cl1)?
Answer: Its Papp is 0.32 ± 0.06 ×10⁻⁶ cm/s.

Question: Which “Reduction of transport in the presence of JPH203” value ([11]; 10 µM JPH203, selective LAT1 inhibitor) does the source give for `CC(C)C[C@H](N)C(=O)O` [leucine] here?
Answer: The value was “about 70%”.

Question: What about the Papp (in vitro [4]) of the same molecule?
Answer: The Papp was 18 to 20 ×10⁻⁶ cm/s.

Question: What about the “Fold higher permeability in the human than in the porcine model” value (hiPSC-derived BMECs [5]) of the same molecule?
Answer: The value was “about three-fold”.

Question: And the “Permeability classification in words” value (hiPSC-derived BMECs [5])?
Answer: Its value is “highly permeable”.

Question: What about the Papp [6] of the same molecule?
Answer: The Papp was 19.9 ± 6.4 ×10⁻⁶ cm/s.

Question: What about the “Vectorial transport, AB direction over BA direction” value [12] of the same molecule?
Answer: The value was “three-fold”.

Question: What about the Papp A→B (in vitro [8]) of the same molecule?
Answer: Its Papp A→B is 18.5 ± 2.2 ×10⁻⁶ cm/s.

Question: And the Papp B→A (in vitro [8])?
Answer: The Papp B→A was 6.4 ± 0.7 ×10⁻⁶ cm/s.

Question: And the Papp (in vitro [8]; Permeability human BBB_Cl1)?
Answer: The Papp was 18 ± 1.8 ×10⁻⁶ cm/s.

Question: Which Papp [6] does the source give for `OC[C@@H](O)[C@@H](O)[C@H](O)[C@H](O)CO` [mannitol] here?
Answer: Its Papp is 0.8 ± 0.1 ×10⁻⁶ cm/s.

Question: What about the Papp (in vitro [8]; Permeability fresh) of the same molecule?
Answer: The Papp was 0.56 ± 0.28 ×10⁻⁶ cm/s.

Question: What about the Papp (in vitro [8]; Permeability frozen) of the same molecule?
Answer: The Papp was 0.67 ± 0.25 ×10⁻⁶ cm/s.

Question: What about the Papp (in vitro [8]; Permeability human BBB_Cl1) of the same molecule?
Answer: Its Papp is 0.6 ± 0.24 ×10⁻⁶ cm/s.

Question: For `CN(Cc1cnc2nc(N)nc(N)c2n1)c1ccc(C(=O)N[C@@H](CCC(=O)O)C(=O)O)cc1` [methotrexate], which Papp [6] is on record?
Answer: Its Papp is 0.77 ± 0.1 ×10⁻⁶ cm/s.

Question: And the Papp (in vitro [8]; Permeability human BBB_Cl1)?
Answer: Its Papp is 0.65 ± 0.12 ×10⁻⁶ cm/s.

Question: What about the “Fold higher permeability in the porcine than in the human model” value [3] of the same molecule?
Answer: Its value is “eight times”.

Question: Which “Fold higher permeability in the human than in the porcine model” value (hiPSC-derived BMECs [1]; human vs porcine) does the source give for `N[C@@H](Cc1ccccc1)C(=O)O` [phenylalanine] here?
Answer: The value was “two-fold”.

Question: What about the Papp [6] of the same molecule?
Answer: Its Papp is 28.6 ± 5.7 ×10⁻⁶ cm/s.

Question: Which results are given for `O=C1NC(=O)C(c2ccccc2)(c2ccccc2)N1` [phenytoin]?
Answer: Permeability classification in words (hiPSC-derived BMECs [1]): highly permeable; Papp [9]: 19 to 21 ×10⁻⁶ cm/s; Published permeability [13]: 35.6 ×10⁻⁶ cm/s; Papp ([2]; human, Permeability human BBB_Cl1, Figure 5C, mean ± sd): 21.3 ± 2.1 ×10⁻⁶ cm/s; Papp [6]: 18.6 ± 0.9 ×10⁻⁶ cm/s

Question: For `COc1cc2nc(N3CCN(C(=O)c4ccco4)CC3)nc(N)c2cc1OC` [prazosin], which Published permeability (hiPSC-derived BMECs [14]) is on record?
Answer: The Published permeability was 4.3 ×10⁻⁶ cm/s.

Question: And the Published permeability ([7]; ref Kurosawa 20)?
Answer: The Published permeability was 8.7 ×10⁻⁶ cm/s.

Question: Which “Inhibition in the uptake after LAT-1 mRNA silencing” value [15] does the source give for `CC(C)C[C@H](CN)CC(=O)O` [pregabalin] here?
Answer: The value was 75%.

Question: Which results are given for `CC(C)NCC(O)COc1cccc2ccccc12` (stereo not shown) [propranolol]?
Answer: Published permeability [13]: 22.6 ×10⁻⁶ cm/s; Papp (in vitro [4]): 22 to 26 ×10⁻⁶ cm/s; Permeability classification in words (hiPSC-derived BMECs [5]): highly permeable; Papp [6]: 22 ± 2.4 ×10⁻⁶ cm/s; Published permeability ([7]; ref Mantle et al. 35): around 30 × 10^−6 cm/s; Papp (in vitro [8]; Permeability human BBB_Cl1): 25.8 ± 4.6 ×10⁻⁶ cm/s

Question: Which Papp [6] does the source give for `CC(=O)O[C@H]1C(=O)[C@@]2(C)[C@H]([C@H](OC(=O)c3ccccc3)[C@]3(O)C[C@H](OC(=O)[C@H](O)[C@@H](NC(=O)c4ccccc4)c4ccccc4)C(C)=C1C3(C)C)[C@]1(OC(C)=O)CO[C@@H]1C[C@@H]2O` [taxol] here?
Answer: Its Papp is 4.9 ± 1 ×10⁻⁶ cm/s.

Question: And the Papp A→B (in vitro [8])?
Answer: Its Papp A→B is 6.3 ± 0.6 ×10⁻⁶ cm/s.

Question: What about the Papp B→A (in vitro [8]) of the same molecule?
Answer: Its Papp B→A is 15.4 ± 0.5 ×10⁻⁶ cm/s.

Question: And the efflux ratio (in vitro [8])?
Answer: The efflux ratio was 2.4.

Question: What about the Papp (in vitro [8]; Permeability human BBB_Cl1) of the same molecule?
Answer: The Papp was 6.8 ± 0.7 ×10⁻⁶ cm/s.

Question: With `CC[C@]1(O)C[C@@H]2CN(CCc3c([nH]c4ccccc34)[C@@](C(=O)OC)(c3cc4c(cc3OC)N(C)[C@H]3[C@@](O)(C(=O)OC)[C@H](OC(C)=O)[C@]5(CC)C=CCN6CC[C@]43[C@@H]65)C2)C1` [vinblastine] as the molecule, how does the “Fold higher permeability in the human than in the porcine model” value (hiPSC-derived BMECs [5]) read?
Answer: The value was “two-fold”.

Question: And the “Permeability classification in words” value (hiPSC-derived BMECs [5])?
Answer: Its value is “medium permeability”.

Question: What about the Papp [6] of the same molecule?
Answer: Its Papp is 3.5 ± 0.8 ×10⁻⁶ cm/s.

Question: And the efflux ratio (in vitro [8])?
Answer: The efflux ratio was 1.5.

Question: And the Papp (in vitro [8]; Permeability human BBB_Cl1)?
Answer: The Papp was 4.1 ± 0.4 ×10⁻⁶ cm/s.

Question: For lucifer yellow, which “Permeability A-B” value [12] is on record?
Answer: The value was 0.15 ± 0.001 x10^-6 cm/s.

Question: And the “Permeability B-A” value [12]?
Answer: The value was 0.13 ± 0.004 x10^-6 cm/s.

Question: And the Permeability fresh [12]?
Answer: Its Permeability fresh is 0.21 ± 0.12 x10^-6 cm/s.

Question: What about the Permeability frozen [12] of the same molecule?
Answer: The Permeability frozen was 0.09 ± 0.04 x10^-6 cm/s.

Question: What about the “Permeability human BBB_Cl1” value [12] of the same molecule?
Answer: The value was 0.18 ± 0.11 x10^-6 cm/s.

Question: What about the efflux ratio [12] of the same molecule?
Answer: Its efflux ratio is 0.9.

Question: And the “Permeability human BBB_Cl2” value [16]?
Answer: The value was 0.33 ± 0.30 x10^-6 cm/s.
